Assay results taken from the METLIN SMRT retention time set (Domingo-Almenara et al. 2019).

Test: gradient 5% acetonitrile 3 min, to 50% in 2 min, to 85% in 15 min, held 3 min, 100 µL/min
Conditions: column: Zorbax Extend-C18 2.1 x 50 mm; eluents: water / acetonitrile, 0.1% formic acid
Summary of the method: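 Retention times come from adduct peaks that were picked computationally and then checked by hand. The standards, pure and pooled in mixtures of ~100 molecules, were run on a Zorbax Extend-C18 column (2.1 × 50 mm, 1.8 μm) at 100 μL/min with water and acetonitrile, each with 0.1% formic acid. Detection was by quadrupole time-of-flight mass spectrometry in positive and negative ionization mode, with a dead volume of 40 μL and a dwell volume of 900 μL.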

Row | SMILES | RP-LC retention time [s]
1 | COCCNC(=O)C1CCCN(C(=O)Nc2ccc(NC(=O)Nc3ccccc3)cc2)C1 (stereo not drawn) | 676
2 | CSc1ccc(-c2nc3ccc(Br)cn3c2Nc2ccc(C)cc2)cc1 | 986
3 | O=C(N[C@H]1C[C@@H]2C[C@H]1CN2S(=O)(=O)c1ccc2c(c1)OCCO2)c1ccccc1 | 803
4 | CCCNC(=O)Cn1ccn2nc(-c3ccccc3)c(CO)c2c1=O | 684
5 | O=C(Cc1cccs1)N(c1ccc(Br)cc1)C1C=CS(=O)(=O)C1 (stereo not drawn) | 833
6 | CCS(=O)(=O)c1nc2ccc(NS(=O)(=O)c3ccccc3)cc2s1 | 838
7 | CC1CCC2(CC1)NC(=O)N(CC(=O)NCc1ccccc1)C2=O (stereo not drawn) | 784
8 | CN(C(=O)c1cc(-c2cccs2)n(C2CCS(=O)(=O)C2)n1)C1CCS(=O)(=O)C1 (stereo not drawn) | 662
9 | CCNC(=O)N1CC(n2cc(C(=O)NCCCOC)nn2)C1 | 580
10 | Cc1ncoc1C(=O)NCC1Cn2cccc2C(=O)N1CC(C)C (stereo not drawn) | 647
11 | CN1Cc2ccccc2-n2ccnc2C12CCN(C(=O)Cc1cccc(F)c1)CC2 | 666
12 | CC1CCN(Cc2nnc(-c3ccccc3)o2)CC1 | 601
13 | O=C(NCCc1csc2nc(-c3cccs3)nn12)c1c(F)cccc1Cl | 792
14 | CCN(Cc1ccccc1)c1ncc(NC(=O)c2ccccc2Cl)cc1C(=O)O | 723
15 | Cn1c(N2CCC(C(=O)NC3CCN(Cc4ccccc4)CC3)CC2)cc(=O)n(C)c1=O | 578
16 | CCOCCCNC(=O)N1CCN(c2nc3ccccc3n3cccc23)CC1 | 618
17 | Cc1ccccc1Nc1nc(-c2ccccc2)cs1 | 1120
18 | CC(=O)c1cccc(NC(=O)Cn2cncc(C)c2=O)c1 | 598

Row | SMILES | RP-LC retention time [s]
19 | Cn1ncc2c3ccccc3n(CC(=O)NCCN3CCCCC3)c2c1=O | 595
20 | Cc1ccc2nc(-c3ccccc3O)c(Nc3ccc(Cl)cc3)n2c1 | 781
21 | O=C(c1ccc(OCC2CCN(C(=O)c3ccsc3)CC2)cc1)N1CCOCC1 | 678
22 | Cc1cccc(N2CCN(C(=O)c3cc(C4CC4)[nH]n3)CC2)c1C | 921
23 | O=C(CC(c1ccccc1)c1ccccc1)NCCCn1ncccc1=O | 702
24 | CN(C)c1ccc(-c2nnc3sc(-c4ccc5ccccc5n4)nn23)cc1 | 1360
25 | CCc1ccc(S(=O)(=O)NCCc2cn(C)c3ncccc23)cc1 | 786
26 | Cc1ncc2c(n1)C[C@@H]1CC[C@H]2N1C(=O)Nc1ccc2c(c1)OCCO2 | 630
27 | CCNC(=O)N1CCCC(c2cccc(C(=O)NC3CCCCCC3)c2)C1 (stereo not drawn) | 876
28 | CSc1cccc(NC(=O)N2CCC(CC(=O)N3CCCCC3)CC2)c1 | 789
29 | CC(C)OCCCNC(=O)c1ccc2c(c1)N(C)C(=O)C1CCCCN21 (stereo not drawn) | 770
30 | O=C(C1CCN(c2ccncc2)CC1)N1CCN(c2ncccn2)CC1 | 570
31 | CCOC(=O)c1nc(NCCc2ccccc2Cl)c2c(C)noc2n1 | 904
32 | Cc1oc(C2CCN(C(=O)C3CCN(S(=O)(=O)N4CCC(C)CC4)CC3)CC2)nc1C(=O)N1CCCC1 | 861
33 | OC[C@H]1O[C@@H](n2cnc3c(NC4CCCC4)ncnc32)C(O)[C@H]1O (stereo partly drawn) | 630
34 | CC1=C(c2ccccc2)S(=O)(=O)N=C1N1CCCN(C(=O)NCCC(C)C)CC1 | 818
35 | CCN1C(=O)C(CC(=O)NCCCOC)Sc2ncccc21 (stereo not drawn) | 620

Further lines, results first:

Row | RP-LC retention time [s] | SMILES
36 | 1230 | COc1ccc(NC(=O)Cc2c(C)nn(-c3nc(-c4ccc(Cl)cc4)cs3)c2C)c(OC)c1
37 | 774 | O=C1NC2(CCN(C(=O)c3cc(F)cc(F)c3)CC2)Nc2cc(Cl)ccc21
38 | 824 | CCCCOc1ccc(NC(=O)c2cc(=O)c3cc(Cl)c(C)cc3o2)c2cccnc12
39 | 564 | CCn1cnc2c1CN(C(=O)c1ccc3c(c1)OCO3)CC2
40 | 583 | Cc1ccc(CNC(=O)C2CCCN(c3cc(=O)n(C)c(=O)n3C)C2)o1 (stereo not drawn)
41 | 668 | CN1C(=O)C(c2c(-c3ccccc3)[nH]c3[nH]c(=O)[nH]c(=O)c23)c2ccccc21 (stereo not drawn)
42 | 1020 | Cc1cccc(NC(=O)N2CCCC2c2nc(-c3cccc(F)c3)no2)c1 (stereo not drawn)
43 | 788 | COc1ccc(S(=O)(=O)NC2CCN(C(=O)CCc3c[nH]c4ccccc34)CC2)cc1
44 | 794 | Cc1cc(C)cc(NC(=O)C2CCN(Cc3cnn(-c4ccccc4)c3-n3cccc3)CC2)c1
45 | 902 | CCN1c2ccc(C)cc2C(=O)NC12CCN(C(=O)c1ccc(C)cc1C)CC2
46 | 904 | Cc1ccc(NC(=O)N2CCC3(CC2)NC(=O)c2cc(Cl)ccc2N3C)cc1C
47 | 734 | Cc1ccc(Nc2nc(C)cc(N3CCN(C(=O)C4CCCCC4)CC3)n2)cc1
48 | 856 | CCN1c2cc(Cl)ccc2C(=O)NC12CCN(C(=O)NCc1cccc(F)c1)CC2
49 | 588 | Cc1cc(NC(=O)CSc2nnc(-c3c(C)nc4sccn34)n2C)no1
50 | 726 | O=C(Cc1cccc(F)c1)Nc1nnc(C2CC(=O)N(c3ccc(F)cc3)C2)o1 (stereo not drawn)
51 | 694 | CCN1CCN(Cc2ccc(C(=O)N3CCN(c4ccc(C)cc4)CC3)cc2)C(=O)C1=O
52 | 849 | Cc1cccc(NS(=O)(=O)c2cc3c(s2)CCN(C(=O)C2CC2)C3)c1
53 | 1060 | O=C(Cn1cccc1-c1nc(-c2ccc3c(c2)OCO3)no1)Nc1cccc(Cl)c1
54 | 565 | COc1cn(CC(=O)Nc2ccc(F)cc2F)c(CO)cc1=O
55 | 641 | COCc1ncc(C)n1CC1CCN(S(=O)(=O)c2cccc3nsnc23)CC1
56 | 699 | COc1ccc(Cl)cc1NC(=O)N1CC2CC1C(=O)O2 (stereo not drawn)
57 | 662 | CC(=O)NCc1nc(-c2ccc(Oc3ccc(NC(C)=O)cc3)cc2)no1
58 | 593 | CC1CCn2c(nc3cc(C(=O)N4CCN(c5ncccn5)CC4)ccc32)C1 (stereo not drawn)
59 | 903 | Cc1cc(C)cc(NC(=O)Cn2cc(-c3nnc(C)o3)c3ccccc32)c1
60 | 866 | Cc1oc(-c2ccc(NC(=O)Cc3ccc(F)cc3)cc2)nc1Cn1cccn1
61 | 632 | CC(=O)Nc1ccc(S(=O)(=O)N2CCN(c3cc(C)c4ccccc4n3)CC2)cc1
62 | 694 | COc1ccc(S(=O)(=O)N2CCC(n3cnnc3C(C)C)CC2)cc1

Row | RP-LC retention time [s] | SMILES
63 | 682 | CN(C(=O)CC(=O)Nc1ccc2nc3n(c(=O)c2c1)CCCCC3)c1ccccc1F
64 | 765 | Cc1cccc(NC(=O)C(C)n2cnc3nc4c(cc3c2=O)CCCC4)c1C (stereo not drawn)
65 | 1120 | C=CCn1c(=O)c2ccccc2n(Cc2nc(-c3ccc(Cl)c(F)c3)no2)c1=O
66 | 1150 | O=C(c1cccs1)N1CCc2cc(-c3csc(C4CC4)n3)ccc21
67 | 703 | O=C(COc1ccc(Cl)cc1)NCc1nnc(SCC(=O)Nc2nccs2)o1
68 | 842 | COCCN1C(=O)c2cc(-c3ccccc3)nn2CC1(C)C(=O)NCc1ccccc1 (stereo not drawn)
69 | 798 | O=C(Cn1cc(-c2ccccc2)c2ncnc(N3CCCCC3)c21)Nc1ccccc1
70 | 953 | COc1ccc(-n2c(=O)c3sccc3n(Cc3nc(-c4ccccc4)no3)c2=O)cc1
71 | 586 | CCN1C(=O)NC(c2cccc(F)c2)C2=C1CN(CCC(=O)NCCOC)C2=O (stereo not drawn)
72 | 765 | CCC1CCCCN1Cc1nc(Cn2ccn3nc(-c4ccc(C)c(C)c4)cc3c2=O)no1 (stereo not drawn)
73 | 1030 | CCOc1ccc(Oc2cc3c(cc2NC(=O)COc2ccc(C)cc2)n(C)c(=O)c(=O)n3C)cc1
74 | 906 | CC1(C(=O)NC2CCN(c3ccc(=O)n(CCOc4ccccc4)n3)C2)CCCCC1 (stereo not drawn)
75 | 959 | COc1ccc(-c2noc(CN3N=NC4C(=O)N(c5ccc6c(c5)CCC6)C(=O)C43)n2)c(OC)c1 (stereo not drawn)
76 | 731 | COc1ccccc1C(=O)Nc1cnc(N2CCCC2)nc1
77 | 935 | CCc1onc(C)c1C1CCCN1C(=O)Nc1cc(C)ccc1OC (stereo not drawn)
78 | 1190 | Cc1ccc(NS(=O)(=O)c2c(C)sc(C)c2-c2cc(C(F)(F)F)on2)cc1
79 | 1070 | Cc1ccc(C)c(Cn2nc3c(S(=O)(=O)N4CCc5ccccc5C4)cccn3c2=O)c1
80 | 791 | CC(=O)N1CCc2cc(N3CC(C(=O)Nc4cccc(C(F)(F)F)c4)CC3=O)ccc21 (stereo not drawn)
81 | 1260 | Cc1ccc(Sc2nccnc2N2CCCC(C(=O)Nc3ccc(C)c(F)c3)C2)cc1 (stereo not drawn)
82 | 719 | CCc1ccc(NS(=O)(=O)c2cc3[nH]c(=O)[nH]c3cc2C)cc1
83 | 1060 | COc1cccc(NC(=O)c2sc(-c3cn(C(C)C)c4ncccc34)nc2C)c1
84 | 890 | Cc1ccccc1NC(=O)c1sc(-c2cn(C)c3ncccc23)nc1C
85 | 705 | CCOc1ccccc1NC(=O)CSc1ccc(N2CCCC(C(=O)NC3CC3)C2)nn1 (stereo not drawn)
86 | 1130 | O=C(Nc1ccccc1F)N1CC(Oc2ccc(-c3nc(-c4ccccc4)no3)cc2)C1
87 | 1110 | O=S(=O)(c1ccccc1)N1CCC(c2noc(-c3cccc(F)c3)n2)CC1
88 | 1100 | COc1ccccc1-c1nnc(-c2ccc(Cl)c(S(=O)(=O)N3CCCCC3)c2)o1
